Reference: publication PMC7367873, “Dissecting the sequence determinants for dephosphorylation by the catalytic subunits of phosphatases PP1 and PP2A” (Nature Communications, 2020)
“Also recorded” adds a separate entry of the source.

Tested on: GAB2/GFP-14-3-3β interaction
Experiment: GAB2/14-3-3 binding assay (GFP-14-3-3β pull-down, Western blot)
Design: species or system human
Protocol: pEGFP(C1)-14-3-3β or pCMV-GAB2-3FLAG was transfected into HeLa Kyoto cells as described in the respective section for 24 h. Cells were incubated with or w/o 20 nM Calyculin A (# 9902 S, Cell Signaling Technology) in complete growth media for 12 min. Cells were washed twice on ice with cold PBS and after addition of 500 µL lysis buffer (100 mM NaCl, 10 mM Tris, 0.1% IGEPAL, 1 mM EDTA, 1 mM EGTA, 20 nM Calyculin A, 1x cOmplete Mini protease inhibitor cocktail (Sigma), 2 mM DTT, 2 mM MnCl2) cells were scraped from plates, lysed by 10 pushes through an injection needle and the insoluble fraction was pelleted by centrifugation (10 min, 10^4 rcf, 4 °C). Supernatants were then subjected to incubation with 1 µM recombinant PP1c (if not indicated otherwise) or buffer for 1 h at 30 °C. […] Next, we subjected samples to immunoprecipitation/pull-down using 25 µL of α-FLAG M2 magnetic bead slurry (Sigma-Aldrich) or an equal volume of bead-coupled α-GFP nanobodies (EMBL PEPcore Core Facility) for 2 h at 4 °C. Beads were then washed three times with lysis buffer and samples were eluted in 1x SDS sample buffer by heating to 95 °C for 10 min and further analyzed by SDS PAGE for 14-3-3/GAB2 association and phosphorylation status of GAB2-pS210.
For SDS-PAGE, samples were loaded on NuPAGE™ 4-12% Bis-Tris protein gels (Invitrogen) and gel electrophoresis was performed at 180 V constant in 1x MOPS buffer. Samples were transferred onto CN blotting membranes (0.45 µm, neoLab) by wet blotting. Membranes were stained using Ponceau, followed by blocking with Tris-buffered saline with 0.1% Tween (TBS-T) containing 5% (w/v) non-fat milk for 45 min at room temperature. After three washes (5 min), membranes were then incubated with the following antibodies in TBS-T with 5% BSA overnight at 4 °C: α-GFP (1:2000, Abcam, ab6556), α-GAB2 (1:1000, CST, #3239), α-GAB2-pS210 (1:250, Symansis, customized purification), α-FLAG (1:1000, M2, Sigma-Aldrich, F3165), α-pan14-3-3 (1:500, SCBT, sc-629), α-PP1 (1:1000, SCBT, sc-7482), α-PP2A (1:1000, SCBT, sc-130237) or α-6His (1:2000, Abcam, ab9108). Afterwards blots were washed three times in TBS-T and incubated with goat anti-mouse IgG-peroxidase conjugate (1:2500, Sigma, A0168), donkey anti-rabbit IgG-horseradish peroxidase (HRP) conjugate (1:2500, GE Healthcare, GENA934), or rabbit anti-sheep IgG (H + L) HRP conjugate (1:2500, Thermo Fisher Scientific, 61-8620) for 2 h at room temperature. […] All blots were quantified using raw images and ImageLab software (v6.0.1, BioRad): Files were imported and analyzed without further modifications. […] The quantification was exported from the analysis table and measurements of background adjusted band volumes where used for further normalization steps and graphical depiction. […]

PP1c: recombinant catalytic subunit of PP1
interaction of GAB2 with overexpressed GFP-14-3-3β (Calyculin A 20 nM in cells, recombinant PP1c in lysate 1 h at 30 °C, PP1c-concentration-dependent, three independent experiments): decreased upon addition of recombinant PP1c in a PP1c–concentration-dependent manner; also recorded: less associated with endogenous GAB2
interaction of GAB2 with GFP-14-3-3β, PP1c pre-inhibited (recombinant PP1c mixed with equimolar Calyculin A for 5–10 min before addition to lysate): but not if recombinant PP1c was inhibited prior to treatment
